{"source": "patent US7514254B2", "about": "“Plant-derived alkaline alpha-galactosidase” (The State of Israel, Ministry of Agriculture & Rural …, priority 1998, dated 2009)", "target": "T1, melon (Cucumis melo) fruit alkaline alpha-galactosidase Form I (Cucumis melo, UniProt Q84NI7)", "T1 sequence (Q84NI7 1-754)": "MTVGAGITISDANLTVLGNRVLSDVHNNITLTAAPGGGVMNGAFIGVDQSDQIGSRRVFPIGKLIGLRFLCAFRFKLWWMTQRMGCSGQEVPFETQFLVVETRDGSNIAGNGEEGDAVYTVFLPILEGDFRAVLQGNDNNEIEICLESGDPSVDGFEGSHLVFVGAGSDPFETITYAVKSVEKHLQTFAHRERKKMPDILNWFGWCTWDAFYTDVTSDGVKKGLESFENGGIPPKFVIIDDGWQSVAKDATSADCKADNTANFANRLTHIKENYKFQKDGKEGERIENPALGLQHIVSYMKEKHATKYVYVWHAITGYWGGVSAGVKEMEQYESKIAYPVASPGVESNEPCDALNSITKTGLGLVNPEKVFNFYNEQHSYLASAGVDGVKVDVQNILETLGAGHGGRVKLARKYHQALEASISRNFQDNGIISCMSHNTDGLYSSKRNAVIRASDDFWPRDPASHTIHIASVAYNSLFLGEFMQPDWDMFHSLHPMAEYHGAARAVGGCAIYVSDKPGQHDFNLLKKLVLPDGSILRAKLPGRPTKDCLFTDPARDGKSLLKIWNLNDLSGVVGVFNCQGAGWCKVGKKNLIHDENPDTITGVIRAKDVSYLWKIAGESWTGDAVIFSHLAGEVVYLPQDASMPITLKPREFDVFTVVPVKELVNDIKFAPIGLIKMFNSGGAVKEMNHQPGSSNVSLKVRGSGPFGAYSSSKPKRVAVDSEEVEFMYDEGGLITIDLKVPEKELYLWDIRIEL", "assay": "Substrate kinetics (Lineweaver-Burk) of alkaline alpha-galactosidase Form I", "experimental": "For routine analysis and monitoring the activity in the purification steps, alpha-galactosidase was assayed as described by Smart and Pharr (“Characterization of alpha-galactosidase from cucumber leaves”, Plant Physiology, 66:731-734, 1980), using p-nitrophenyl alpha-galactoside (pNPG) as substrate. Reaction was initiated by adding 50 μl enzyme aliquot to either 200 μl 100 mM pH 5.5 McIlvaine buffer or 100 mM pH 7.5 HEPES buffer, containing 5 mM pNPG at 35 C. The reaction was terminated after 10 min by adding 1 ml of 5% (w/v) Na2CO3 and activity expressed as nmol nitrophenol per min as measured at 410 nm. […] The assay was started by adding 50 μl enzyme preparation at 35 C and terminated after 10 to 20 min by 2 min boiling.\nThe fractions from the DEAE-Sepharose chromatography which were active at pH 7.5 were pooled and dialyzed against buffer A for 12 h prior to loading onto an HPLC ion exchange chromatography column (Mono-Q HR 5/5, Pharmacia, Uppsala, Sweden), previously equilibrated with buffer A. Bound proteins were eluted with a linear gradient of 0.1 to 0.45 M NaCl and the active fractions were detected using pNPG as substrate at pH 7.5 as described above. […] For the further purification of Form II the active fractions of the peak II were chromatographed on hydrophobic interaction chromatography. The fractions were pooled, brought to 1 M (NH4)2SO4 and loaded on to a hydrophobic interaction column (phenyl-Sepharose CL-4B, 0.5×12 cm, Pharmacia, Uppsala, Sweden) previously equilibrated with buffer A containing 1 M (NH4)2SO4. The protein was eluted with a reverse stepwise gradient from 1 to 0 M (NH4)2SO4 with 50 mM intervals in buffer A. Fractions containing the activity peak were collected and dialyzed for 12 h against buffer A and the dialysate was concentrated by reverse dialysis against solid sucrose. The enzyme, partially purified by hydrophobic interaction chromatography, was used for the characterization of Form II. The active fractions from the hydrophobic interaction column were further purified. Active fractions were separated electrophoretically using a Mini Prep Cell (Bio-Rad Laboratories, Hercules, Calif.) for discontinuous native-PAGE with 7% polyacrylamide, according to manufacturer's instructions. Fractions (0.25 ml/fraction) were assayed at pH 7.5 with pNPG as substrate for the activity. The active fractions were pooled, concentrated by Vivaspin Concentrator (Vivascience LTD, Lincoln, England), and run in a 8% SDS-PAGE. Proteins in the SDS-PAGE were identified using Coomassie Blue staining.\nTherefore, the active fractions from the Mono-Q column were used for the characterization of Form I. In addition, the Form I enzyme was further purified, as described in the following section.", "data": [{"smiles": "OC[C@H]1O[C@H](OC[C@H]2O[C@H](OC[C@H]3O[C@H](O[C@]4(CO)O[C@H](CO)[C@@H](O)[C@@H]4O)[C@H](O)[C@@H](O)[C@@H]3O)[C@H](O)[C@@H](O)[C@H]2O)[C@H](O)[C@@H](O)[C@H]1O", "note": "[Stachyose, O-alpha-D-galactopyranosyl-(1-6)-O-alpha-D-galactopyranosyl-(1-6)-O-alpha-D-glucopyranosyl-(1-2)-beta-D-fructofuranoside]", "values": [{"measurement": "Vmax/Km ratio", "result": 0.06}, {"measurement": "Vmax", "setting": "Lineweaver-Burk", "result": 0.24, "unit": "μmol mg^−1 protein min^−1"}]}]}
